Patent publication US11345694B2, “Antibacterial compounds” (DISCUVA LTD., priority 2017, dated 2022)
Converted amounts (≈) assume the structure as drawn.

Tests used:
[1] = system: E. coli NCTC 13441 (UPEC); assay: MIC broth microdilution; type: cell-based, Escherichia coli; details: for MIC: Escherichia coli, NCTC13441
Outline: (§1)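 Read-out is visible growth: the MIC is the lowest compound concentration that prevents it after incubating 20-24 hours at 37° C in air. Compounds span 0.39-200 μM final (two-fold steps, up to 2% DMSO) in cation-adjusted Müller-Hinton broth, following CLSI guidelines for planktonic bacteria.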

[2] = system: Acinetobacter baumannii ATCC 17978 (AB); assay: MIC broth microdilution; type: cell-based; details: for MIC: ATCC17978
Outline: as §1

[3] = system: Enterobacter cloacae DSM 30054 (Ed); assay: MIC broth microdilution; type: cell-based; details: for MIC: DSM30054
Outline: (§2)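 Growth inhibition read after 20-24 hour incubation at 37° C in ambient atmosphere; MIC is the lowest compound concentration with no growth. Planktonic bacteria in cation-adjusted Müller-Hinton broth were exposed to two-fold dilutions (0.39-200 μM final; ≤2% DMSO final) per CLSI guidelines.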

[4] = system: Escherichia coli K12 (EC); assay: MIC broth microdilution; type: cell-based
Outline: as §1

[5] = system: Klebsiella pneumoniae ATCC 10031 (KP2); assay: MIC broth microdilution; type: cell-based; details: for MIC: ATCC10031
Outline: as §2

[6] = system: Pseudomonas aeruginosa ATCC 33359 (PA); assay: MIC broth microdilution; type: cell-based; details: for MIC: ATCC33359
Outline: as §1

[7] = system: Salmonella typhimurium XNAA5 (St); assay: MIC broth microdilution; type: cell-based; details: for MIC: Salmonella enterica
Outline: as §1

[8] = system: Serratia marcescens SL1344 (Sm); assay: MIC broth microdilution; type: cell-based
Outline: as §1

[9] = system: Staphylococcus aureus ATCC 35556 (SA); assay: MIC broth microdilution; type: cell-based; details: for MIC: ATCC35556
Outline: as §1

[10] = system: K. pneumoniae ATCC 700603 (KP3); assay: MIC broth microdilution; type: cell-based, Klebsiella pneumoniae; details: for MIC: Klebsiella pneumoniae, ATCC700603
Outline: as §2

[11] = system: K. pneumoniae H151440671 (KP10); assay: MIC broth microdilution; type: cell-based, Klebsiella pneumoniae; details: for MIC: Klebsiella pneumoniae
Outline: as §2

[12] = system: K. pneumoniae H154020667 (KP6); assay: MIC broth microdilution; type: cell-based, Klebsiella pneumoniae; details: for MIC: Klebsiella pneumoniae
Outline: as §2

[13] = system: K. pneumoniae H154300688 (KP9); assay: MIC broth microdilution; type: cell-based, Klebsiella pneumoniae; details: for MIC: Klebsiella pneumoniae
Outline: as §2

[14] = system: K. pneumoniae H154600588 (KP8); assay: MIC broth microdilution; type: cell-based, Klebsiella pneumoniae; details: for MIC: Klebsiella pneumoniae
Outline: as §2

[15] = system: K. pneumoniae H154640784 (KP7); assay: MIC broth microdilution; type: cell-based, Klebsiella pneumoniae; details: for MIC: Klebsiella pneumoniae
Outline: as §2

[16] = system: K. pneumoniae H154680676 (KP5); assay: MIC broth microdilution; type: cell-based, Klebsiella pneumoniae; details: for MIC: Klebsiella pneumoniae
Outline: as §2

[17] = system: K. pneumoniae NCTC 13438 (KP1); assay: MIC broth microdilution; type: cell-based, Klebsiella pneumoniae; details: for MIC: Klebsiella pneumoniae, NCTC13438
Outline: as §2

[18] = system: human hepatocarcinoma cell line ATCC HB-8065 (HepG2); assay: Human cell viability (CellTiter-Glo); type: cell-based; details: Homo sapiens; HepG2 cells, 24 h incubation, CellTiter-Glo luminescence, 0.2-100 μM; read-out: IC50 values against the HepG2 cell line
Outline: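 Cytotoxicity was read as CellTiter-Glo luminescence after 24 h compound exposure at 37° C., 5% CO2. Final concentrations spanned 0.2-100 μM in two-fold steps, in 1% FBS MEM with 1% DMSO, on cells plated a day earlier at 20,000/well. IC50 came from 4-parameter logistic regression.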

| MIC [1] [µM] | MIC [2] [µM] | MIC [3] [µM] | MIC [4] [µM] | MIC [5] [µM] | MIC [6] [µM] | MIC [7] [µM] | MIC [8] [µM] | MIC [9] [µM] | MIC [10] [µM] | MIC [11] [µM] | MIC [12] [µM] | MIC [13] [µM] | MIC [14] [µM] | MIC [15] [µM] | MIC [16] [µM] | MIC [17] [µM] | IC50 [18] [µM] | SMILES | also measured |
| --- | --- | --- | --- | --- | --- | --- | --- | --- | --- | --- | --- | --- | --- | --- | --- | --- | --- | --- | --- |
|  |  |  |  |  |  |  |  |  |  |  |  |  |  |  |  |  |  | C[C@H]1c2cccc(O)c2C(=O)C2=C(O)[C@]3(O)C(=O)C(C(N)=O)=C(O)[C@@H](N(C)C)[C@@H]3[C@@H](O)[C@@H]21 [DOX] | MIC UPEC [1]: C (a MIC of from 10 to 100 is assigned the letter C); MIC AB [2]: A (an MIC (μM) of less or equal to 1 is assigned the letter A); MIC Ecl [3]: B (a MIC of from 1 to 10 is assigned the letter B); MIC EC [4]: B (a MIC of from 1 to 10 is assigned the letter B); MIC KP2 [5]: A (an MIC (μM) of less or equal to 1 is assigned the letter A); MIC PA [6]: C (a MIC of from 10 to 100 is assigned the letter C); MIC St [7]: B (a MIC of from 1 to 10 is assigned the letter B); MIC Sm [8]: B (a MIC of from 1 to 10 is assigned the letter B); MIC SA [9]: A (an MIC (μM) of less or equal to 1 is assigned the letter A); MIC KP3 [10]: C (a MIC of from 10 to 100 is assigned the letter C); MIC KP10 [11]: B (a MIC of from 1 to 10 is assigned the letter B); MIC KP6 [12]: C (a MIC of from 10 to 100 is assigned the letter C); MIC KP9 [13]: C (a MIC of from 10 to 100 is assigned the letter C); MIC KP8 [14]: C (a MIC of from 10 to 100 is assigned the letter C); MIC KP7 [15]: C (a MIC of from 10 to 100 is assigned the letter C); MIC KP5 [16]: C (a MIC of from 10 to 100 is assigned the letter C); MIC KP1 [17]: C (a MIC of from 10 to 100 is assigned the letter C) |
| ≤ 1 | > 100 | ≤ 1 | ≤ 1 | ≤ 1 | > 100 | ≤ 1 | 1 to 10 (≈ 0.292 to 2.92 µg/mL) | > 100 | 1 to 10 (≈ 0.292 to 2.92 µg/mL) | 1 to 10 (≈ 0.292 to 2.92 µg/mL) | 1 to 10 (≈ 0.292 to 2.92 µg/mL) | 1 to 10 (≈ 0.292 to 2.92 µg/mL) | 1 to 10 (≈ 0.292 to 2.92 µg/mL) | 1 to 10 (≈ 0.292 to 2.92 µg/mL) | 1 to 10 (≈ 0.292 to 2.92 µg/mL) | 1 to 10 (≈ 0.292 to 2.92 µg/mL) | > 100 | Cc1cc(-c2[nH]c(N)nc2-c2ccc3c(c2)CCO3)ccn1 [Example 3, 4-(2,3-Dihydrobenzofuran-5-yl)-5-(2-methylpyridin-4-yl)-1H-imidazol-2-amine] |  |
| 1 to 10 (≈ 0.285 to 2.85 µg/mL) | > 100 | 1 to 10 (≈ 0.285 to 2.85 µg/mL) | ≤ 1 | ≤ 1 | > 100 | 1 to 10 (≈ 0.285 to 2.85 µg/mL) | 10 to 100 (≈ 2.85 to 28.5 µg/mL) | > 100 |  |  |  |  |  |  |  | 10 to 100 (≈ 2.85 to 28.5 µg/mL) | > 100 | Cc1cc(-c2nc(N)[nH]c2-c2ccc(Cl)cc2)ccn1 [Example 4, 5-(4-Chlorophenyl)-4-(2-methylpyridin-4-yl)-1H-imidazol-2-amine] |  |
| ≤ 1 | > 100 | ≤ 1 | ≤ 1 | ≤ 1 | > 100 | ≤ 1 | ≤ 1 | 10 to 100 (≈ 3.75 to 37.5 µg/mL) | 1 to 10 (≈ 0.375 to 3.75 µg/mL) | ≤ 1 | ≤ 1 | ≤ 1 | 1 to 10 (≈ 0.375 to 3.75 µg/mL) | 1 to 10 (≈ 0.375 to 3.75 µg/mL) | ≤ 1 | 1 to 10 (≈ 0.375 to 3.75 µg/mL) | 25 to 100 | Nc1cc(-c2[nH]c(N)nc2-c2ccc(OCc3ccc(F)cc3)cc2)ccn1 [Example 7, 4-(2-Amino-4-(4-((4-fluorobenzyl)oxy)phenyl)-1H-imidazol-5-yl)pyridin-2-amine] |  |
| ≤ 1 | > 100 | ≤ 1 | ≤ 1 | ≤ 1 | > 100 | ≤ 1 | 10 to 100 (≈ 3.07 to 30.7 µg/mL) | > 100 | 1 to 10 (≈ 0.307 to 3.07 µg/mL) | ≤ 1 | ≤ 1 | 1 to 10 (≈ 0.307 to 3.07 µg/mL) | 1 to 10 (≈ 0.307 to 3.07 µg/mL) | 1 to 10 (≈ 0.307 to 3.07 µg/mL) | 1 to 10 (≈ 0.307 to 3.07 µg/mL) | 1 to 10 (≈ 0.307 to 3.07 µg/mL) | > 100 | CNc1cc(-c2[nH]c(N)nc2-c2ccc3c(c2)CCO3)ccn1 [Example 9, 4-(2-Amino-4-(2,3-dihydrobenzofuran-5-yl)-1H-imidazol-5-yl)-N-methylpyridin-2-amine] |  |
